Blank lines part the entries; values can stand above or below the compound they belong to.
Columns and labels:
[1] = test system: pooled human liver microsomes; experiment: In vitro formation of methemoglobinemic metabolites with pooled human liver microsomes and human erythrocytes; format: cell-based; settings: for formation of methemoglobenemic metabolites, Control: macrolide alone, no 8-aminoquinoline
Method: (§1) In one aspect of the present invention, an in vitro assay is developed for evaluation of biotransformation reactions leading to generation of methemoglobinemic metabolites of 8-aminoquinolines. This method uses simultaneous incubation of a test compound with the hepatic microsomes or Baculosomes® (microsomes prepared from insect cells infected with recombinant baculovirus containing a cDNA insert for a specific human P450 isozyme and NADPH-P450 reductase) and human erythrocytes followed by determination of methemoglobin formation. This allows the unstable metabolites generated in situ to react with the human erythrocytes.

Mouse Liver Microsomes = experiment: In vitro formation of methemoglobinemic metabolites with mouse liver microsomes and human erythrocytes; format: cell-based; settings: for formation of methemoglobenemic metabolites, Control / formation of methemoglobenemic metabolites, Azithromycin / formation of methemoglobenemic metabolites, Erythromycin / formation of methemoglobenemic metabolites, Microsomes: Mouse Liver Microsomes; for formation of methemoglobenemic metabolites, Control: macrolide alone, no 8-aminoquinoline; for formation of methemoglobenemic metabolites, Azithromycin: 8-aminoquinoline with Azithromycin; for formation of methemoglobenemic metabolites, Erythromycin: 8-aminoquinoline with Erythromycin; for formation of methemoglobenemic metabolites, Microsomes: no macrolide; for % methemoglobin formation, Mouse Liver Microsomes: drug 100 μM, microsomes equivalent to 25 pmoles cytochrome P450, Mean ± S.D. of four
Method: as §1

CYP 2C8 = target: T1, CYP 2C8 (Homo sapiens, UniProt P10632); experiment: Methemoglobinemic metabolite formation with Baculosomes, CYP 2C8; format: cell-based; settings: mean ± S.D. of four
T1 construct: purchased; host or cells: insect cells infected with recombinant baculovirus
T1 sequence (P10632 1-490): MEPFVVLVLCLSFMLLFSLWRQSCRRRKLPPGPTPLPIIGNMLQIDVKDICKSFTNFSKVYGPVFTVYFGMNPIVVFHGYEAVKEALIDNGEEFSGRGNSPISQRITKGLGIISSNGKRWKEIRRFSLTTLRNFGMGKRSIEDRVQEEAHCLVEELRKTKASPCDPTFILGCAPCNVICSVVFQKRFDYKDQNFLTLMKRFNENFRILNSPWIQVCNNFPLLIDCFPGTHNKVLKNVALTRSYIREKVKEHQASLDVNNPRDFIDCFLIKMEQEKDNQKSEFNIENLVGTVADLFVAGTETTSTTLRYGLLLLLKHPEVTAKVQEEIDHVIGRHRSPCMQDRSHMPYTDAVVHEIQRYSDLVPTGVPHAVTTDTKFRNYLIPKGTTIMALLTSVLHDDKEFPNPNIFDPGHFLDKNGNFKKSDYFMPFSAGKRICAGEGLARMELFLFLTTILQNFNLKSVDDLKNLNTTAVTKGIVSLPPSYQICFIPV
Method: as §1

CYP 2C19 = target: T2, CYP 2C19 (Homo sapiens, UniProt P33261); experiment: Methemoglobinemic metabolite formation with Baculosomes, CYP 2C19; format: cell-based; settings: mean ± S.D. of four
T2 construct: purchased; host or cells: insect cells infected with recombinant baculovirus
T2 sequence (P33261 whole entry): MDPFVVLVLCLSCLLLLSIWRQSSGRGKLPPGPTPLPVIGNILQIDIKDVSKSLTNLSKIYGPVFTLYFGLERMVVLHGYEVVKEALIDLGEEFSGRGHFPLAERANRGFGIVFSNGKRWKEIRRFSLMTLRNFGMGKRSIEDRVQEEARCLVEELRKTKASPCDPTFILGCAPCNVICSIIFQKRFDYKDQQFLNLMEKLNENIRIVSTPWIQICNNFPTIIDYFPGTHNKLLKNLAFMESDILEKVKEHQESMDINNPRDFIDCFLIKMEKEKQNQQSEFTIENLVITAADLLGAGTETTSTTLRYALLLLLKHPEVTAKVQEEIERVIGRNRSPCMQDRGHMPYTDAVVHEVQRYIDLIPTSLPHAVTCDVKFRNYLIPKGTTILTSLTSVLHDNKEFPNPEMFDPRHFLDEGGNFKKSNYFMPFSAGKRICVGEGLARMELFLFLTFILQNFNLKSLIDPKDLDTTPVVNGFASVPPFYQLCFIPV
Method: (§2) This method uses simultaneous incubation of a test compound with the hepatic microsomes or Baculosomes® (microsomes prepared from insect cells infected with recombinant baculovirus containing a cDNA insert for a specific human P450 isozyme and NADPH-P450 reductase) and human erythrocytes followed by determination of methemoglobin formation. This allows the unstable metabolites generated in situ to react with the human erythrocytes.

human erythrocytes = experiment: In vitro methemoglobin formation, human erythrocytes, control without microsomes; format: cell-based; settings: for % methemoglobin formed, Supersomes None: no Baculosomes, mean ± S.D. of four; for % methemoglobin formation, Control: no microsomes, drug 100 μM, Mean ± S.D. of four observations
Method: as §1

CYP 1A2 = target: T3, CYP 1A2 (Homo sapiens, UniProt P05177); experiment: Methemoglobinemic metabolite formation with Baculosomes, CYP 1A2; format: cell-based; settings: mean ± S.D. of four
T3 construct: purchased; host or cells: insect cells infected with recombinant baculovirus
T3 sequence (P05177 2-516 limits assumed): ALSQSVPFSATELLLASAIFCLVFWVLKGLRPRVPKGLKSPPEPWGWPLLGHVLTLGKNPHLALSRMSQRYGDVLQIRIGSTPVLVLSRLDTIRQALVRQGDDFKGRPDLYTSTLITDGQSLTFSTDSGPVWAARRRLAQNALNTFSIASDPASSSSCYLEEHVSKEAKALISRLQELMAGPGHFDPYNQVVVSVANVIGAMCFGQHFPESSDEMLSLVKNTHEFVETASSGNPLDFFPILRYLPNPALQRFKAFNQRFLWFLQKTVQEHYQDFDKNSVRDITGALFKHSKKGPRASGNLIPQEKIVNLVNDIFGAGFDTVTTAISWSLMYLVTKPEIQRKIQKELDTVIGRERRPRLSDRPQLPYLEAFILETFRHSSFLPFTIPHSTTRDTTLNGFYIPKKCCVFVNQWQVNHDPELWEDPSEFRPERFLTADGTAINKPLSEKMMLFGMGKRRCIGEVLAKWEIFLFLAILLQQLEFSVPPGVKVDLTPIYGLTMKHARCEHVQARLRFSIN
Method: as §2

CYP 2E1 = target: T4, CYP 2E1 (Homo sapiens, UniProt P05181); experiment: Methemoglobinemic metabolite formation with Baculosomes, CYP 2E1; format: cell-based; settings: mean ± S.D. of four
T4 construct: purchased; host or cells: insect cells infected with recombinant baculovirus
T4 sequence (P05181 whole entry): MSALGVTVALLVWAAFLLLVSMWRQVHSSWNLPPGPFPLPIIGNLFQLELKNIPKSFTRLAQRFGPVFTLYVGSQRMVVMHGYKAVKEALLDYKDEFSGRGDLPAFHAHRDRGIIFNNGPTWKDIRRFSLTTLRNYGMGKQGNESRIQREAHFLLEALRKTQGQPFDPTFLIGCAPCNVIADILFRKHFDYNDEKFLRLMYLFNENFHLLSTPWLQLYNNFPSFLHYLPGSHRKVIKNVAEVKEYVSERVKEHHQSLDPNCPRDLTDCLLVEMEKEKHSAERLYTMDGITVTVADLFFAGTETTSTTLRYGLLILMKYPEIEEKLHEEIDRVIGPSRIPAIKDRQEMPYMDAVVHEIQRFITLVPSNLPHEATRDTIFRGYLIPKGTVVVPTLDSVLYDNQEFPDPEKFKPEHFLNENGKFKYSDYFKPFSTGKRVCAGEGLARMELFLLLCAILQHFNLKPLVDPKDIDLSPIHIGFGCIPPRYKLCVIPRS
Method: as §2

CPY 2B6 = target: T5, CPY 2B6 (Homo sapiens, UniProt P20813); experiment: Methemoglobinemic metabolite formation with Baculosomes, CYP 2B6; format: cell-based; settings: mean ± S.D. of four
T5 construct: purchased; host or cells: insect cells infected with recombinant baculovirus
T5 sequence (P20813 1-491): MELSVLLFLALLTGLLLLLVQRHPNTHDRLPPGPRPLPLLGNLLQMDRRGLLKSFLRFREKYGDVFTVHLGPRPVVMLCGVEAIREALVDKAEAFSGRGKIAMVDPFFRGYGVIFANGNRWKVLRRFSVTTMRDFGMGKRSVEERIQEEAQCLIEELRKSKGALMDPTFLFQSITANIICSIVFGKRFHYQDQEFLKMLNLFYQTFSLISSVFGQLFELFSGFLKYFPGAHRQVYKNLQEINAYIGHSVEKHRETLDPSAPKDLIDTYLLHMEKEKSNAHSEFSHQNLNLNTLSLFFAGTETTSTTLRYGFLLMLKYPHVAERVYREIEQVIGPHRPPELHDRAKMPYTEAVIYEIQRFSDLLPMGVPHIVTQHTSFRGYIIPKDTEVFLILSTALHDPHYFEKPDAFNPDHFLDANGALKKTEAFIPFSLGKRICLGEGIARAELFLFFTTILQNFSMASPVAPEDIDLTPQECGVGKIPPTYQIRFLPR
Method: as §2

CYP 2A6 = target: T6, CYP 2A6 (Homo sapiens, UniProt P11509); experiment: Methemoglobinemic metabolite formation with Baculosomes, CYP 2A6; format: cell-based; settings: mean ± S.D. of four
T6 construct: purchased; host or cells: insect cells infected with recombinant baculovirus
T6 sequence (P11509 1-494): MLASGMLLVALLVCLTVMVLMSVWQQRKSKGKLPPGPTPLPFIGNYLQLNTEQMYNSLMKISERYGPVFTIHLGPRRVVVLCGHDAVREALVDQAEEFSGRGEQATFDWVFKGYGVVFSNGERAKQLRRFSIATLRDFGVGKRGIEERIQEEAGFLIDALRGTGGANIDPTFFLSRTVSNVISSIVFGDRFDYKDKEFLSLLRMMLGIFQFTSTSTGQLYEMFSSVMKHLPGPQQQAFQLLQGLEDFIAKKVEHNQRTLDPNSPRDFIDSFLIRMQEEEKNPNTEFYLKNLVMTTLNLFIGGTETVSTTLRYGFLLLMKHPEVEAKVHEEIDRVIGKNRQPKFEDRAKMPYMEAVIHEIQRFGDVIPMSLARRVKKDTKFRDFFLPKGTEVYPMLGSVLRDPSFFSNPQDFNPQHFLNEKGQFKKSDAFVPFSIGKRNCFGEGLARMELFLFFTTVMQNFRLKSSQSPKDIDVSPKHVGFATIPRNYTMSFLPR
Method: as §2

CYP 3A4 = target: T7, CYP 3A4 (Homo sapiens, UniProt P08684); experiment: Methemoglobinemic metabolite formation with Baculosomes, CYP 3A4; format: cell-based
T7 construct: purchased; host or cells: insect cells infected with recombinant baculovirus
T7 sequence (P08684 2-503 limits assumed): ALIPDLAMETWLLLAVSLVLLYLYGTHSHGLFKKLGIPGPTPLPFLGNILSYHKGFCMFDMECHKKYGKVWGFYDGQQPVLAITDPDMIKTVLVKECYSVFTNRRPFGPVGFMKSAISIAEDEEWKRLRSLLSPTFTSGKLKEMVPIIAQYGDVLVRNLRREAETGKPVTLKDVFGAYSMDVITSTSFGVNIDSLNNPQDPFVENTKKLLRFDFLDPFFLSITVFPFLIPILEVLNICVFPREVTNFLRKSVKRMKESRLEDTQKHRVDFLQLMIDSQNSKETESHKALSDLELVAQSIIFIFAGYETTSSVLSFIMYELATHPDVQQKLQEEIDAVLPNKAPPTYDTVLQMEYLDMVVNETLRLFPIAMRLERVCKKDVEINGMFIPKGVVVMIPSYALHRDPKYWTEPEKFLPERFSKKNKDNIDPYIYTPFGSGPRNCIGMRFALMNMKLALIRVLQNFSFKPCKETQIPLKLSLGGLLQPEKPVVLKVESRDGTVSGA
Method: as §1

CYP 2D6 = target: T8, CYP 2D6 (Homo sapiens, UniProt P10635); experiment: Methemoglobinemic metabolite formation with Baculosomes, CYP 2D6; format: cell-based; settings: mean ± S.D. of four
T8 construct: purchased; host or cells: insect cells infected with recombinant baculovirus
T8 sequence (P10635 whole entry): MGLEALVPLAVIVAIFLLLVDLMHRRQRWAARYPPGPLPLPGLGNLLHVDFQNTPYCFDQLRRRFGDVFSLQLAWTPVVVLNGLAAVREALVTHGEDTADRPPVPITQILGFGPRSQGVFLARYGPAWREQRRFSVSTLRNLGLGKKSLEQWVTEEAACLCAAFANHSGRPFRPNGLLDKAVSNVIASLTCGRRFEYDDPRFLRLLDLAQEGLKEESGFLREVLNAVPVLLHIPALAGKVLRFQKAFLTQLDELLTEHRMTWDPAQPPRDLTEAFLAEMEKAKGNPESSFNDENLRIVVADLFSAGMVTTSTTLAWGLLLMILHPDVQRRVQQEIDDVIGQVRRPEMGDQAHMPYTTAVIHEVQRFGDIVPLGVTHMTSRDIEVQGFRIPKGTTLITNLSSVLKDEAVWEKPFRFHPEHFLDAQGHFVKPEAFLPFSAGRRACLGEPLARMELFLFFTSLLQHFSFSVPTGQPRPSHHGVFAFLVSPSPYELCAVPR
Method: as §2

CYP 2C9 = target: T9, CYP 2C9 (Homo sapiens, UniProt P11712); experiment: Methemoglobinemic metabolite formation with Baculosomes, CYP 2C9; format: cell-based; settings: mean ± S.D. of four
T9 construct: purchased; host or cells: insect cells infected with recombinant baculovirus
T9 sequence (P11712 whole entry): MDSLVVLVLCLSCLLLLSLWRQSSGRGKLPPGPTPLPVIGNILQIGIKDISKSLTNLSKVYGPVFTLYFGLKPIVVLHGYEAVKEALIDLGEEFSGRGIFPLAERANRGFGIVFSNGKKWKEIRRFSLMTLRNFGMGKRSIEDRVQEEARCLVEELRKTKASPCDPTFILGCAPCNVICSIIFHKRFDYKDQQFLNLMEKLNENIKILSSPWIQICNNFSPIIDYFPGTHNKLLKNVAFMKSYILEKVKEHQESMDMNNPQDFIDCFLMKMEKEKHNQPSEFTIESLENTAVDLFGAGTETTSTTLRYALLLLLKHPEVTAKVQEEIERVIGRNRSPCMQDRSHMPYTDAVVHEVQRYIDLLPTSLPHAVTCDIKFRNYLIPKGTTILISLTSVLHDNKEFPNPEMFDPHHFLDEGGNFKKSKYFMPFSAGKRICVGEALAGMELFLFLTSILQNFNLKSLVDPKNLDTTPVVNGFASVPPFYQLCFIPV
Method: as §2

Plasmodium berghei = experiment: In vivo antimalarial evaluation in Plasmodium berghei-mouse malaria model; settings: TAO i.p. 50 mg/kg × 3 once daily alone; for (%) Parasitemia: mean in brackets
Source text: One concern with this method of controlling 8-aminoquinoline toxicity is that the inhibition metabolism of the drug may impair its antiparasitic efficacy. […] Thus treatment of the individuals with NPC1161B along with an inhibitor of CYP3A4 should not compromise the therapeutic efficiency of NPC1161B.

SMILES: CC[C@H]1OC(=O)[C@H](C)[C@@H](O[C@H]2C[C@@](C)(OC)[C@@H](O)[C@H](C)O2)[C@H](C)[C@@H](O[C@@H]2O[C@H](C)C[C@H](N(C)C)[C@H]2O)[C@](C)(O)C[C@@H](C)CN(C)[C@H](C)[C@@H](O)[C@]1(C)O [Azithromycin, reference compound]
- formation of methemoglobenemic metabolites, Control ([1]; pooled human Liver Microsomes): 0
- formation of methemoglobenemic metabolites, Control (Mouse Liver Microsomes): 6.598 ± 0.505

SMILES: COc1cc(NC(C)CCCN)c2ncccc2c1 (stereo not shown) [Primaquine, primaquine, reference compound]
- % methemoglobin formed, Supersomes None (human erythrocytes): 1.465 ± 0.183%
- % methemoglobin formation, Control (human erythrocytes): 1.465 ± 0.414%
- formation of methemoglobenemic metabolites, Azithromycin (Mouse Liver Microsomes): 11.800 ± 2.862
- formation of methemoglobenemic metabolites, Erythromycin (Mouse Liver Microsomes): 23.770 ± 5.826
- formation of methemoglobenemic metabolites, Microsomes (Mouse Liver Microsomes): 36.660 ± 2.612
- % methemoglobin formation, Mouse Liver Microsomes (Mouse Liver Microsomes): 36.660 ± 2.612%

SMILES: CO[C@H]1C[C@H](O[C@H]2[C@H](C)[C@@H](O[C@@H]3O[C@H](C)C[C@H](N(C)C)[C@H]3OC(C)=O)[C@@H](C)C[C@@]3(CO3)C(=O)[C@H](C)[C@@H](OC(C)=O)[C@@H](C)[C@@H](C)OC(=O)[C@@H]2C)O[C@@H](C)[C@@H]1OC(C)=O [Troleandomycin, troleandomycin, reference compound]
- MST (Plasmodium berghei): 15 days
- (%) Parasitemia (Plasmodium berghei; day 7 p.i.): 13.3/18.3/25.5/16.5/13.1 (17.3) %
- (%) Parasitemia (Plasmodium berghei; day 10 p.i.): 22.7/34.5/32.0/32.1/24.3 (29.1) %
- (%) Parasitemia (Plasmodium berghei; day 14 p.i.): 31.5/41.5/28.5/49.3/49.3 (40.0) %
- deaths (Plasmodium berghei; number of deaths/day): 5/15

Continued, in another order:

- formation of methemoglobenemic metabolites, Control ([1]; pooled human Liver Microsomes): 0
- formation of methemoglobenemic metabolites, Control (Mouse Liver Microsomes): 6.230 ± 1.009
SMILES: CC[C@H]1OC(=O)[C@H](C)[C@@H](O[C@H]2C[C@@](C)(OC)[C@@H](O)[C@H](C)O2)[C@H](C)[C@@H](O[C@@H]2O[C@H](C)C[C@H](N(C)C)[C@H]2O)[C@](C)(O)C[C@@H](C)C(=O)[C@H](C)[C@@H](O)[C@]1(C)O [Erythromycin, erythromycin, reference compound]

- % methemoglobin formed, CYP 2C8 (CYP 2C8): 1.893 ± 0.275%
- % methemoglobin formed, CYP 2C19 (CYP 2C19): 1.733 ± 0.327%
- % methemoglobin formed, Supersomes None (human erythrocytes): 2.138 ± 0.624%
- % methemoglobin formation, Control (human erythrocytes): 2.138 ± 0.624%
- % methemoglobin formed, CYP 1A2 (CYP 1A2): 2.060 ± 0.185%
- % methemoglobin formed, CYP 2E1 (CYP 2E1): 8.703 ± 0.956%
- % methemoglobin formed, CPY 2B6 (CPY 2B6): 5.465 ± 0.625%
- % methemoglobin formed, CYP 2A6 (CYP 2A6): 2.775 ± 0.175%
- % methemoglobin formation, Pooled Human liver Microsomes ([1]; drug 100 μM, microsomes equivalent to 25 pmoles cytochrome P450, Mean ± S.D. of four): 12.510 ± 1.890%
- formation of methemoglobenemic metabolites, Azithromycin ([1]; pooled human Liver Microsomes, 8-aminoquinoline with Azithromycin): 10.595 ± 0.842
- formation of methemoglobenemic metabolites, Erythromycin ([1]; pooled human Liver Microsomes, 8-aminoquinoline with Erythromycin): 6.720 ± 1.011
- formation of methemoglobenemic metabolites, Microsomes ([1]; pooled human Liver Microsomes, no macrolide): 12.860 ± 1.994
- % methemoglobin formed, Cimetidine (CYP 3A4; 3A4 Baculosomes, 8-aminoquinoline 100 μM with Cimetidine 100 μM): 11.905 ± 1.420%
- % methemoglobin formed, Erythromycin (CYP 3A4; 3A4 Baculosomes, 8-aminoquinoline 100 μM with Erythromycin 100 μM): 15.288 ± 2.359%
- % methemoglobin formed, Ketoconazole (CYP 3A4; 3A4 Baculosomes, 8-aminoquinoline 100 μM with Ketoconazole 100 μM): 19.010 ± 0.870%
- % methemoglobin formed, Troleandomycin (CYP 3A4; 3A4 Baculosomes, 8-aminoquinoline 100 μM with Troleandomycin 100 μM): 16.743 ± 1.401%
- % methemoglobin formed, inhibitor None (CYP 3A4; 3A4 Baculosomes, 8-aminoquinoline 100 μM, no inhibitor): 20.925 ± 0.502%
- % methemoglobin formed, CYP 3A4 (CYP 3A4; Baculosomes, mean ± S.D. of four): 15.320 ± 0.504%
- formation of methemoglobenemic metabolites, Azithromycin (Mouse Liver Microsomes): 10.850 ± 2.134
- formation of methemoglobenemic metabolites, Erythromycin (Mouse Liver Microsomes): 9.375 ± 0.686
- formation of methemoglobenemic metabolites, Microsomes (Mouse Liver Microsomes): 17.790 ± 1.460
- % methemoglobin formation, Mouse Liver Microsomes (Mouse Liver Microsomes): 17.790 ± 1.460%
- % methemoglobin formed, CYP 2D6 (CYP 2D6): 17.200 ± 1.088%
- % methemoglobin formed, CYP 2C9 (CYP 2C9): 0.070 ± 0.130%
SMILES: COc1cc(N[C@@H](C)CCCN)c2nccc(C)c2c1Oc1ccc(Cl)c(Cl)c1 [NPC1161A]
- methemoglobin toxicity generated by CYP 3A4, comparison among the three 8-aminoquinolines (CYP 3A4; FIG. 5): almost similar methemoglobin toxicity
